Data: PMC10382584, “Macrocyclization of linear molecules by deep learning to facilitate macrocyclic drug candidates discovery” (Nature Communications, 2023)

Experiments:
Experiment in all cases: biochemical
Design in all cases: DiscoveRx KINOMEscan competition binding, percent of DMSO control signal at 100 nM
Conditions in all cases: read-out: Fig. 4a / Percent Control / Compound 1; percent of DMSO control, competition binding
[1] = target: T1, ABL1(T315I)-phosphorylated (Homo sapiens, UniProt P00519, T315I)
T1 construct: phosphorylated

AURKB = AURKB (Homo sapiens, UniProt Q96GD4)
BRAF(V600E) = BRAF(V600E) (Homo sapiens, UniProt P15056, V600E)
CASK = CASK (Homo sapiens, UniProt O14936)
CSNK1D = CSNK1D (Homo sapiens, UniProt P48730)
ERK2 = target: T2, ERK2 (Homo sapiens, UniProt P28482)
T2 construct: gene MAPK1

FER = FER (Homo sapiens, UniProt P16591)
FGFR3(G697C) = FGFR3(G697C) (Homo sapiens, UniProt P22607, G697C)
FLT3(N841I) = FLT3(N841I) (Homo sapiens, UniProt P36888, N841I)
GRK3 = GRK3 (Homo sapiens, UniProt P35626)
GSK3A = GSK3A (Homo sapiens, UniProt P49840)
GSK3B = GSK3B (Homo sapiens, UniProt P49841)
ITK = ITK (Homo sapiens, UniProt Q08881)
LATS2 = LATS2 (Homo sapiens, UniProt Q9NRM7)
MRCKB = target: T3, MRCKB (Homo sapiens, UniProt Q9Y5S2)
T3 construct: gene CDC42BPB

MST1R = MST1R (Homo sapiens, UniProt Q04912)
NEK10 = NEK10 (Homo sapiens, UniProt Q6ZWH5)
NEK3 = NEK3 (Homo sapiens, UniProt P51956)
PIK3CD = PIK3CD (Homo sapiens, UniProt O00329)
PKAC-alpha = target: T4, PKAC-alpha (Homo sapiens, UniProt P17612)
T4 construct: gene PRKACA

PYK2 = target: T5, PYK2 (Homo sapiens, UniProt Q14289)
T5 construct: gene PTK2B

TTK = TTK (Homo sapiens, UniProt P33981)
WNK2 = WNK2 (Homo sapiens, UniProt Q9Y3S1)
YANK3 = target: T6, YANK3 (Homo sapiens, UniProt Q86UX6)
T6 construct: gene STK32C

p38-alpha = target: T7, p38-alpha (Homo sapiens, UniProt Q16539)
T7 construct: gene MAPK14
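Note: KINOMEscan kinase panel binding assay, signal normalized between DMSO as 100% and a positive control compound as 0%.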

Sequence of ITK (Q08881 whole entry): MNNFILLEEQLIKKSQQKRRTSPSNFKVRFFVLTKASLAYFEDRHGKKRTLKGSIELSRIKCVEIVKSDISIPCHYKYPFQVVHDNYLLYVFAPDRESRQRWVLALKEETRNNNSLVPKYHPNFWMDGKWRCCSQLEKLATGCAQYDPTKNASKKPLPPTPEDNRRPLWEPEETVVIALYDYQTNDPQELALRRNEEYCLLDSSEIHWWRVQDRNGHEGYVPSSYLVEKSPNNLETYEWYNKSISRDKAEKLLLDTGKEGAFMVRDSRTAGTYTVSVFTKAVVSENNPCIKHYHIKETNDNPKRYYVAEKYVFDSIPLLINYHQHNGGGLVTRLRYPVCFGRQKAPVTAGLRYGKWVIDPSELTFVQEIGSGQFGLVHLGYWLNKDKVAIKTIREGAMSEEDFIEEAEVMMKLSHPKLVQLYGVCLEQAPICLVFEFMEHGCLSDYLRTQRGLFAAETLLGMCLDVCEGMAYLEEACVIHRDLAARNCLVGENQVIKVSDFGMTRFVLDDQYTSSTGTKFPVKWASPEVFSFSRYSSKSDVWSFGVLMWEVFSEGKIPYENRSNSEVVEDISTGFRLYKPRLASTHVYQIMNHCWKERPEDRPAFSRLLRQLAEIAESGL
Sequence of MST1R (Q04912 whole entry): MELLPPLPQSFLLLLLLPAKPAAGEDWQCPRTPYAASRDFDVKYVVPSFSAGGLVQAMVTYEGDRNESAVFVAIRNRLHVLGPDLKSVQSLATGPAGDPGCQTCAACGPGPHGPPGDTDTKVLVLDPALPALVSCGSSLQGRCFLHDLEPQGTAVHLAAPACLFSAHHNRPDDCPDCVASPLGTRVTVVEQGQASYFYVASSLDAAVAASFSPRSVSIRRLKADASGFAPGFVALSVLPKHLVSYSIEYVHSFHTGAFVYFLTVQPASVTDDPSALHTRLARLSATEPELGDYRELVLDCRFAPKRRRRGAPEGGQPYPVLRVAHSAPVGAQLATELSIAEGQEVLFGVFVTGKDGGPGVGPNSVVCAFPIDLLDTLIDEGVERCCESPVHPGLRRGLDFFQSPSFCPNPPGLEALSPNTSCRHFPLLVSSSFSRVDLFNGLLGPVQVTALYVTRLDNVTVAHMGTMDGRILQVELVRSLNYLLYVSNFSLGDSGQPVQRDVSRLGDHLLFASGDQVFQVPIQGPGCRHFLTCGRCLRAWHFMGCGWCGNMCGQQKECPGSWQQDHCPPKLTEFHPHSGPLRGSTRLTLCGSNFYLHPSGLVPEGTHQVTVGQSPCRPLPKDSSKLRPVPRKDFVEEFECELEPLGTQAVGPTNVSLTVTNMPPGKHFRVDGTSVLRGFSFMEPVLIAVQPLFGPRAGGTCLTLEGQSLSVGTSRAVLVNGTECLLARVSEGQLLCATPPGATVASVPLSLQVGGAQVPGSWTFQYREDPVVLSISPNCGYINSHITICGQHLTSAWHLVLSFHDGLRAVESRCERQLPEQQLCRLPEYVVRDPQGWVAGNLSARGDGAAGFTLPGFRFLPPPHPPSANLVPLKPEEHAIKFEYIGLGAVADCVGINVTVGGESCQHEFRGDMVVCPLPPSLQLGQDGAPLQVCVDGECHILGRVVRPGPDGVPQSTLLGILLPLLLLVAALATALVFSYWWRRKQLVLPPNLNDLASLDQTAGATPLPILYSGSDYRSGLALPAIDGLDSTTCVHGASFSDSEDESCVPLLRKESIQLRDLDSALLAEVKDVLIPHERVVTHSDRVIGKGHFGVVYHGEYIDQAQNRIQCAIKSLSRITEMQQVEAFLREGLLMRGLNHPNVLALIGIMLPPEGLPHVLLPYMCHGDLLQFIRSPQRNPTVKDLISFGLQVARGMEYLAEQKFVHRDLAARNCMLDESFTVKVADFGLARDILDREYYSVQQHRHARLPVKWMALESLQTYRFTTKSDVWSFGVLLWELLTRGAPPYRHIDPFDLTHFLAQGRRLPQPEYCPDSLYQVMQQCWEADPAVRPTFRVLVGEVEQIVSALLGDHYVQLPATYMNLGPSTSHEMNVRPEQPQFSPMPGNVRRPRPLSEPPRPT
Sequence of GSK3A (P49840 whole entry): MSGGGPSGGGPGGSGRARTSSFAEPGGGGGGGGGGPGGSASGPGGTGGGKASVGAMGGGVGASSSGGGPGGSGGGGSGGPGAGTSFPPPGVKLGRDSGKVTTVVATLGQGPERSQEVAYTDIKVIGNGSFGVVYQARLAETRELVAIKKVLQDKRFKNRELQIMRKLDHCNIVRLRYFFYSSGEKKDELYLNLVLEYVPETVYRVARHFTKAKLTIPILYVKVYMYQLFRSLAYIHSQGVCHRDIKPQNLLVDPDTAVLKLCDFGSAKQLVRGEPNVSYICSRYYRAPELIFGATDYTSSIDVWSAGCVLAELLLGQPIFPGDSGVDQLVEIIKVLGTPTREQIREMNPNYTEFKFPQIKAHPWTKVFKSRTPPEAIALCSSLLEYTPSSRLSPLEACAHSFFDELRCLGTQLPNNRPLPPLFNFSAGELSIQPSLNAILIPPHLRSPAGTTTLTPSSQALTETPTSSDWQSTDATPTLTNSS
Sequence of FER (P16591 whole entry): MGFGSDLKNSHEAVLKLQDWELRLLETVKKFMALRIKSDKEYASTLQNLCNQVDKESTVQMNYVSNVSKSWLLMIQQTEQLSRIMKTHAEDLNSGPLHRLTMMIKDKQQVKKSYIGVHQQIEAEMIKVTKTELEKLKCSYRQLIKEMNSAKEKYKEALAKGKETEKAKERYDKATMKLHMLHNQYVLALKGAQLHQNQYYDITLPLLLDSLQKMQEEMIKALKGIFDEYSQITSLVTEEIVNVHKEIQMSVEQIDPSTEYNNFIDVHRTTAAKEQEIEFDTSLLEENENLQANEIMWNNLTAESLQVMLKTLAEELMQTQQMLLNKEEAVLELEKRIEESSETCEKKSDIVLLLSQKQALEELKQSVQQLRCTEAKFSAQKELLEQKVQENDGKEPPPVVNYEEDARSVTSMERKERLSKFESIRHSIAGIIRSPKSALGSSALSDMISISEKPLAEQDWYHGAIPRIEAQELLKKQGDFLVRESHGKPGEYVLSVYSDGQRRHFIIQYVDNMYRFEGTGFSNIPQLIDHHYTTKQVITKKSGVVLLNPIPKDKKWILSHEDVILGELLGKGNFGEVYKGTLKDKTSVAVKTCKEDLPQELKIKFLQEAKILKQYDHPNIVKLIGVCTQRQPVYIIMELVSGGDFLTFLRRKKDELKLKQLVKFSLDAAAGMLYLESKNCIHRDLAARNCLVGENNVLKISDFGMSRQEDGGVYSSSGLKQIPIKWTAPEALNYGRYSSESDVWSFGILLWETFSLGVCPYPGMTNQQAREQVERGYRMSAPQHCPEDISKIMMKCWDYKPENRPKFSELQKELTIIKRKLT
Sequence of TTK (P33981 whole entry): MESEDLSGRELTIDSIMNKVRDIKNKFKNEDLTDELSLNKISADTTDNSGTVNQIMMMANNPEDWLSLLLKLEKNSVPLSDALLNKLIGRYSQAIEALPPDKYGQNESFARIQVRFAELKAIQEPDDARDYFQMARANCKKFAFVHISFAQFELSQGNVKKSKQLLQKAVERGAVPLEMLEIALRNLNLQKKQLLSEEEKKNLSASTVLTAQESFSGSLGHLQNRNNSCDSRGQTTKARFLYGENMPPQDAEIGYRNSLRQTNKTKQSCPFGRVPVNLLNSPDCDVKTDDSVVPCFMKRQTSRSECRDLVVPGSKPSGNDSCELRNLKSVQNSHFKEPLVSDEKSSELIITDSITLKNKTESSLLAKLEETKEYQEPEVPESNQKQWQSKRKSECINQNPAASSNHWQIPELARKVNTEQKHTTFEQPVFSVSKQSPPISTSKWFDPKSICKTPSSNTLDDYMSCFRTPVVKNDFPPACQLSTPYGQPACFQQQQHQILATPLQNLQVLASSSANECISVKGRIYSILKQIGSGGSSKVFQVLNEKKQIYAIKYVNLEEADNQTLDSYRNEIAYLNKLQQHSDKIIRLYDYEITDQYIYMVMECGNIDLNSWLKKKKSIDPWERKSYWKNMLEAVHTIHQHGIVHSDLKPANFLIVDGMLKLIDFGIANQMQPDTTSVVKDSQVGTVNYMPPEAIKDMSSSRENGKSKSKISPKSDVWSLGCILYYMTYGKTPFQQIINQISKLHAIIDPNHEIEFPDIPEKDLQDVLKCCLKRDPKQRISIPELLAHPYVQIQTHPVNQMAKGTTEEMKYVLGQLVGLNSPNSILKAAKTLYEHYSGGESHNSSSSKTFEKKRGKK
T6 sequence (Q86UX6 whole entry): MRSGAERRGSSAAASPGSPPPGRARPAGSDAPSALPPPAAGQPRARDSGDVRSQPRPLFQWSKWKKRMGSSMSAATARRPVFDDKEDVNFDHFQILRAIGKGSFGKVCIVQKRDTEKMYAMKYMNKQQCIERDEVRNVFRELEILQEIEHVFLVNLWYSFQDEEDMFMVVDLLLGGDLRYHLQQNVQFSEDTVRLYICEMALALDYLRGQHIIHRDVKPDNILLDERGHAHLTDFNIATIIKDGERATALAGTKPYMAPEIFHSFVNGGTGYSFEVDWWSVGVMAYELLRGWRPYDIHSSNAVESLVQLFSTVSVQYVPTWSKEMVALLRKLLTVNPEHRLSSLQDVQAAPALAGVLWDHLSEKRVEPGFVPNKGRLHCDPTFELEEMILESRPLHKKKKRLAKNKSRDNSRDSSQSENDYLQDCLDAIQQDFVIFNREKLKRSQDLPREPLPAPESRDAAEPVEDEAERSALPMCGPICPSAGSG
T7 sequence (Q16539 whole entry): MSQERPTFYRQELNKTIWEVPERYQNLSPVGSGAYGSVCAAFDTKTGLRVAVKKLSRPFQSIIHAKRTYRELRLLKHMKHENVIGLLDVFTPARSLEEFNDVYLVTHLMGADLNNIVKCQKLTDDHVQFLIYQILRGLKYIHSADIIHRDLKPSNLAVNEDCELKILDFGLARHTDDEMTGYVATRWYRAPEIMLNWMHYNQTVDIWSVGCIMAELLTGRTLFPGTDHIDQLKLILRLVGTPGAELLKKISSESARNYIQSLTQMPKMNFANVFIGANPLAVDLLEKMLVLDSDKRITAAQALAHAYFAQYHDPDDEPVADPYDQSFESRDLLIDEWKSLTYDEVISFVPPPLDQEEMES

Q: What does the source list for `Cc1cnc2nc1Nc1cccc(c1)COCc1cc(ccc1OCCN1CCCC1)N2` [Compound 1]?
A: remaining binding at 0.1 µM [1]: 49%; remaining binding at 0.1 µM (AURKB): 82%; remaining binding at 0.1 µM (BRAF(V600E)): 93%; remaining binding at 0.1 µM (CASK): 73%; remaining binding at 0.1 µM (CSNK1D): 100%; remaining binding at 0.1 µM (ERK2): 100%; remaining binding at 0.1 µM (FER): 87%; remaining binding at 0.1 µM (FGFR3(G697C)): 94%; remaining binding at 0.1 µM (FLT3(N841I)): 3.5%; remaining binding at 0.1 µM (GRK3): 72%; remaining binding at 0.1 µM (GSK3A): 100%; remaining binding at 0.1 µM (GSK3B): 84%; remaining binding at 0.1 µM (ITK): 93%; remaining binding at 0.1 µM (LATS2): 100%; remaining binding at 0.1 µM (MRCKB): 96%; remaining binding at 0.1 µM (MST1R): 100%; remaining binding at 0.1 µM (NEK10): 95%; remaining binding at 0.1 µM (NEK3): 90%; remaining binding at 0.1 µM (PIK3CD): 89%; remaining binding at 0.1 µM (PKAC-alpha): 99%; remaining binding at 0.1 µM (PYK2): 82%; remaining binding at 0.1 µM (TTK): 95%; remaining binding at 0.1 µM (WNK2): 100%; remaining binding at 0.1 µM (YANK3): 99%; remaining binding at 0.1 µM (p38-alpha): 100%
